Reference: patent US12077741B2, “Crosslinked hydrogel compositions for regulating states of encapsulated cancer cells” (University Of Delaware, priority 2017, dated 2024)
Where two headings read alike, the source gives them in different places.

Tests used:
Type in all cases: cell-based
MDA-MB-231 cells [1] = assay: Drug response, cells cultured in hydrogels; parameters: viability, times higher in cellular dormancy than growth state: dose or concentration left out as unconfirmed; settings: for viability at 4000 µM / viability at 7000 µM / viability at 10000 µM / EC50 / IC50 / viability at 50 µM / viability at 550 µM / viability at 10 µM / viability at 1000 µM / viability at 100 µM: Homo sapiens; for viability at 4000 µM: 4 mM; for viability at 4000 µM / viability at 7000 µM / viability at 10000 µM / viability at 50 µM / viability at 550 µM / viability at 10 µM / viability at 1000 µM / viability at 100 µM: read-out: cell viability (normalized to vehicle control); for viability at 7000 µM: 7 mM; for viability at 10000 µM: 10 mM; for viability at 50 µM: 0.05 mM; for viability at 550 µM: 0.55 mM; for viability at 10 µM: 0.01 mM; for viability at 100 µM: 0.10 mM
Method: DOX, PAC, and 5-FU stocks were diluted in medium to desired concentrations: DOX (0.001, 0.01, 0.05, 0.1, 0.55, 1, or 2 mM), PAC (0.05, 0.1, 0.55, or 1 mM), and 5-FU (1.0, 4.0, 7.0, or 10 mM).
At the highest concentrations tested, the DMSO concentration ranged between 1-2% (v/v) for all drugs used. […] Thus, all vehicle controls used in this study contained medium with 1% (v/v) DMSO. […] 15 days post encapsulation, cell-laden hydrogels were rinsed with PBS and transferred to a new well plate for drug exposure for 48 hr. The hydrogels were rinsed twice with PBS to remove excess medium, followed by labeling with a Live/Dead® cell viability kit (Invitrogen) in PBS for 30 min, according to the manufacturer's instructions. The hydrogels were rinsed with PBS for 10 min to remove excess stain. Labeled hydrogels were placed on coverslips and imaged using structured Illumination on a Zeiss AxioObserver Z1 inverted fluorescent microscope as previously described. 32-34 Fluorescent z-stacks (z-height: 150 μm) were acquired approximately at the center of the hydrogels, between the bottom and top surfaces of each sample, and analyzed using FIJI software (NIH). Due to the red autofluorescence of DOX, only the live cells were imaged for viability studies. To quantify cell viability, the number of live cells was normalized to the number of live cells measured in the vehicle control. A minimum of 6 hydrogels were analyzed for each condition.
(§1) For statistical comparison between viability values, distribution normality was assessed via quantification of skewness and kurtosis, where values within ±2 indicated a normal distribution. Equal variance among groups was additionally evaluated. A one-way analysis of variance (ANOVA) with a post-hoc Tukey-Kramer test was implemented to determine statistical significance between multiple groups. Unless otherwise Indicated, p<0.05 was considered statistically significant. Origin Lab software was used to fit DOX viability data. A nonlinear, growth/sigmoidal curve fit using a dose response function with a Levenberg Marquardt iteration algorithm was performed and allowed to converge for all conditions with a chi-square tolerance of 1E-9.

MDA-MB-231 cells [2] = assay: Drug response, 2D controls on tissue culture plastic; settings: for EC50 / IC50: 2D culture
Method: MDA-MB-231 cells were trypsinized, counted, and seeded in a fibronectin coated (10 μg/mL), 96 well plate at a density of 5,000 cells/well in serum-containing medium. To measure the drug response of cells independent of encapsulation, pre-encapsulation conditions were replicated by allowing the cells to adhere overnight followed by culture in serum-free medium for 48 hr. DOX, PAC, and 5-FU were reconstituted in DMSO to a stock concentration of 172.4, 58.5, and 384.6 mM, respectively. Stock solutions were diluted in medium to a range of concentrations: DOX (0.001, 0.01, 0.1, 1, 10, 100, or 1000 μM), PAC (0.001, 0.01, 0.1, 1, 10, or 100 μM), and 5-FU (0.001, 0.01, 0.1, 1, 10, 100, or 1000 μM) and added to the MDA-MB-231 cells for 48 hr (n=6 wells per concentration). 46 At the highest drug concentration tested, the DMSO concentration remained […]; thus, 0.1% (v/v) DMSO was used as a vehicle control in 2D studies. Cells were rinsed in PBS twice to remove excess medium, followed by labeling with a Live/Dead® cell viability kit (Invitrogen). Only live cells were labeled, as dead cells detached from the wells and were washed away. Labeled cells were imaged using the proper filter cubes and analyzed using FIJI software (NIH).
as §1
The response of MDA-MB-231 cells cultured on standard tissue culture plastic (2D) to DOX, PAC, and 5-FU was quantified as control. MDA-MB-231 cells were cultured on 96 well plates and serum-starved for 48 hr, following the same protocol used for encapsulation for ease of comparison. The MDA-MB-231 cells were exposed to drug-containing medium at the following concentrations (DOX: 0.001, 0.01, 0.1, 1, 10, 100, or 1000 μM; PAC: 0.001, 0.01, 0.1, 1, 10, or 100 μM; and 5-FU: 0.001, 0.01, 0.1, 1, 10, 100, or 1000 μM) for 48 hr. The live MDA-MB-231 cells were fluorescently labeled, imaged, and quantified (FIG. 1).

MDA-MB-231 cells [3] = assay: Doxorubicin accumulation and nuclear localization; settings: for nuclear to cytoplasmic (N/C) ratio: 48 hr
Method: Cells were encapsulated in hydrogel formulations that induced growth, balanced dormancy, or cellular dormancy for 15 days as described above. The medium was replaced with DOX-containing medium at a concentration of 0.05 mM. Four hydrogels for each formulation were imaged at varying time points (1, 2, 3, 5, 12, 20, 24, 48 hr). The mean cellular fluorescence intensity was measured and plotted against time to quantify intracellular DOX accumulation. To calculate the nuclear to cytoplasmic ratio, the fluorescence intensity measurements of the cytoplasmic and nuclear regions were acquired for each cell, with at least 70 cells measured per image. Due to its mechanism of action, DOX is known to primarily localize to the nucleus of DOX-sensitive cell lines. Studies quantifying DOX localization in multiple cell lines show alignment between high fluorescence intensity and the nucleus. Additionally, nuclear location was approximated based on areas of high fluorescence intensity with distinct morphological features (size, location).

[4] = MDA-MB-231, 48 h, balanced dormancy, 48 hr
[5] = MDA-MB-231, 48 h, cellular dormancy, 48 hr
[6] = MDA-MB-231, 48 h, growth state, 48 hr
[7] = MDA-MB-231, 48 h, balanced dormancy hydrogel, 48 hr
[8] = MDA-MB-231, 48 h, cellular dormancy hydrogel, 48 hr
[9] = MDA-MB-231, 48 h, growth state hydrogel, 48 hr
[10] = MDA-MB-231, range over the three hydrogel formulations
[11] = Homo sapiens, MDA-MB-231, 48 hr
[12] = Homo sapiens, MDA-MB-231, 2D, 48 hr, read-out: cell viability

In the case of `O=c1[nH]cc(F)c(=O)[nH]1` [5-FU, 5-fluorouracil], the viability at 4000 µM (MDA-MB-231 cells [1]; [4]) is reported as 92 ± 4%, the viability at 7000 µM (MDA-MB-231 cells [1]; MDA-MB-231, 48 h, both dormant states, 48 hr) is reported as > 90% and the viability at 4000 µM (MDA-MB-231 cells [1]; [5]) is reported as 100 ± 6%. The viability at 10000 µM (MDA-MB-231 cells [1]; [5]) was 99 ± 4%, the viability at 10000 µM (MDA-MB-231 cells [1]; MDA-MB-231, 48 h, either dormant state, 48 hr) was > 93% and the viability at 7000 µM (MDA-MB-231 cells [1]; [6]) was 80 ± 2%. For the same molecule, the viability at 10000 µM (MDA-MB-231 cells [1]; [6]) was 75 ± 5%, the “cell viability (normalized to vehicle control)” value (MDA-MB-231 cells [1]; dormant cells, all concentrations tested) was > 90% and the EC50 (MDA-MB-231 cells [2]; Homo sapiens, MDA-MB-231, 48 h) was 1.81 µM. The viability at 1000 µM (MDA-MB-231 cells [2]; Homo sapiens, MDA-MB-231, 2D, 1 mM, 48 hr, read-out: cell viability) was 65 ± 3%.

For `C[S+](C)[O-]` [DMSO, Dimethyl Sulfoxide], the “cell viability vs serum-containing medium” value (MDA-MB-231 cells [1]; 1 or 2% (v/v), growth hydrogel formulation, 48 hr) was “no significant differences” and the cytotoxicity (MDA-MB-231 cells [1]; 18%, 26% (v/v)) was “cytotoxic”.

In the case of `COc1cccc2c1C(=O)c1c(O)c3c(c(O)c1C2=O)C[C@@](O)(C(=O)CO)C[C@@H]3O[C@H]1C[C@H](N)[C@H](O)[C@H](C)O1` [DOX, doxorubicin], the “fold increase in IC50, balanced dormancy vs growth state” value (MDA-MB-231 cells [1]) is reported as 1.3 fold, the “fold increase in IC50, cellular dormancy vs growth state” value (MDA-MB-231 cells [1]) is reported as 1.8 fold and the “viability, times higher in cellular dormancy than growth state” value (MDA-MB-231 cells [1]; 0.55) is reported as 4-6 times. For the same molecule, the EC50 (MDA-MB-231 cells [1]; [7]) was 67.6 µM, the IC50 (MDA-MB-231 cells [1]; [7]) was 58.3 µM and the viability at 50 µM (MDA-MB-231 cells [1]; [4]) was 57 ± 2%. It also gave a viability at 550 µM (MDA-MB-231 cells [1]; [4]) of 16 ± 1%, an EC50 (MDA-MB-231 cells [1]; [8]) of 83.3 µM and an IC50 (MDA-MB-231 cells [1]; [8]) of 79.9 µM. For the same molecule, the viability at 10 µM (MDA-MB-231 cells [1]; [5]) was 91 ± 12%, the viability at 50 µM (MDA-MB-231 cells [1]; [5]) was 62 ± 5% and the viability at 550 µM (MDA-MB-231 cells [1]; [5]) was 24 ± 3%. For the same molecule, the EC50 (MDA-MB-231 cells [1]; [9]) was 43.6 µM, the IC50 (MDA-MB-231 cells [1]; [9]) was 43.6 µM and the viability at 10 µM (MDA-MB-231 cells [1]; [6]) was 82 ± 1%. For the same molecule, the viability at 50 µM (MDA-MB-231 cells [1]; [6]) was 44 ± 3%, the viability at 550 µM (MDA-MB-231 cells [1]; [6]) was 5 ± 1% and the EC50 (MDA-MB-231 cells [1]; [10]) was 47.4 to 83.3 µM. It also gave an IC50 (MDA-MB-231 cells [1]; [10]) of 43.6 to 79.9 µM, an EC50 (MDA-MB-231 cells [2]; Homo sapiens, MDA-MB-231, 48 h) of 0.006 µM and an IC50 (MDA-MB-231 cells [2]; [11]) of 0.007 µM. The viability at 100 µM (MDA-MB-231 cells [2]; [12]) was 1%, the “fold decrease in nuclear localization, dormant vs growth state” value (MDA-MB-231 cells [3]) was 1.5 fold and the “intracellular accumulation (mean fluorescence intensity) between the three phenotypic states” value (MDA-MB-231 cells [3]; 0.05 mM, over 48 hr) was “no statistically significant differences”. The “nuclear to cytoplasmic (N/C) ratio” value (MDA-MB-231 cells [3]; balanced dormancy, 0.05 mM) was 2.3±0.8, the “nuclear to cytoplasmic (N/C) ratio” value (MDA-MB-231 cells [3]; cellular dormancy, 0.05 mM) was 2.4±1.0 and the “nuclear to cytoplasmic (N/C) ratio” value (MDA-MB-231 cells [3]; growth state, 0.05 mM) was 3.5±2.3.

`CC(=O)O[C@H]1C(=O)[C@@]2(C)[C@H]([C@H](OC(=O)c3ccccc3)[C@]3(O)C[C@H](OC(=O)[C@H](O)[C@@H](NC(=O)c4ccccc4)c4ccccc4)C(C)=C1C3(C)C)[C@]1(OC(C)=O)CO[C@@H]1C[C@@H]2O` [PAC, paclitaxel] showed a viability at 550 µM (MDA-MB-231 cells [1]; [4]) of 86 ± 5%, a viability at 1000 µM (MDA-MB-231 cells [1]; MDA-MB-231, 48 h, balanced dormancy, 1.00 mM, 48 hr) of 72 ± 3% and a viability at 100 µM (MDA-MB-231 cells [1]; [5]) of 91 ± 6%. For the same molecule, the viability at 550 µM (MDA-MB-231 cells [1]; [5]) was 84 ± 5%, the viability at 1000 µM (MDA-MB-231 cells [1]; MDA-MB-231, 48 h, cellular dormancy, 1 mM, 48 hr) was 75 ± 3% and the viability at 1000 µM (MDA-MB-231 cells [1]; MDA-MB-231, 48 h, dormant cells (either state), 1 mM, 48 hr) was > 72%. The viability at 100 µM (MDA-MB-231 cells [1]; [6]) was 55 ± 4%, the viability at 550 µM (MDA-MB-231 cells [1]; [6]) was 51 ± 4% and the viability at 1000 µM (MDA-MB-231 cells [1]; MDA-MB-231, 48 h, growth state, 1 mM, 48 hr) was 39 ± 4%. For the same molecule, the EC50 (MDA-MB-231 cells [2]; 48 hr) was 0.761 µM, the EC50 (MDA-MB-231 cells [2]; Homo sapiens, MDA-MB-231, 48 h) was 0.716 µM and the IC50 (MDA-MB-231 cells [2]; [11]) was 0.651 µM. The viability at 0.01 µM (MDA-MB-231 cells [2]; Homo sapiens, MDA-MB-231, 2D, 0.01 μM, 48 hr, read-out: cell viability) was 94 ± 13% and the viability at 100 µM (MDA-MB-231 cells [2]; [12]) was 6 ± 2%.
